Consider 82 compounds from PubChem BioAssay AID1241 (SRMLSC, 2008).

Some results are limits rather than exact numbers.

This assay can be described thus: compounds inducing NF-kB luciferase expression – cell-based, SH-SY5Y, dose response (AID 1241). The settings on record: SH-SY5Y NF-kB promoter luciferase reporter, fold induction. (In general: A reporter such as luciferase makes a cellular process visible.)
With `CC(=O)Nc1cccc(-c2csc(Nc3ccc(C)cn3)n2)c1`, the EC50 was 0.702 µM.

For the compound `Cc1cc2nc(-c3ccc(SCC(=O)Nc4ccc(S(=O)(=O)NC5CC5)cc4)nc3)[nH]c2cc1C`, the EC50 was 0.907 µM.

For `Cc1ccccc1Nc1nnc(SCC2CCCCO2)s1` (configuration not stated), the EC50 was 5.76 µM.

Take `N#C/C(=N\Nc1ccc(F)cc1)C(=N)N1CCCCC1`: the EC50 is 2.97 µM.

As for `O=C(/C=C\Nc1ccccc1Br)c1ccc2c(c1)OCO2`, the EC50 was 0.096 µM.

As to `Cn1cc([N+](=O)[O-])c(C(=O)Nc2ccc(-c3nc4ccccc4[nH]3)cc2)n1`, the EC50 was 1.41 µM.

On to `Nc1nc(-c2ccccc2)nc2sc3c(c12)CCCC3`, for which the EC50 was 0.873 µM.

For the compound `COC(=O)CSc1nc2cc3c(cc2cc1C#N)OCO3`, the EC50 was 0.997 µM.

`COc1ccc(NC(=O)c2csc3c2CCCC3)cc1`: the EC50 is 16.7 µM.

Regarding `O=C(CCc1ccccc1)Nc1ccc2ccccc2n1`, the EC50 was 16.2 µM.

For `O=C(Nc1ccc2c(c1)OCCO2)Nc1ccc2c(c1)OCO2`, the EC50 was 0.114 µM.

For `Nc1cccc(-c2cn3cc(C(F)(F)F)cc(Cl)c3n2)c1`, the EC50 is 0.682 µM.

Consider `Cc1ccc(NC(=O)c2ccccn2)c(Br)c1`, for which the EC50 is 18.9 µM.

Regarding `O=C(CSc1ncnc2ccccc12)c1ccco1`, the EC50 is 4.15 µM.

With `O=C(c1cccs1)c1ccc(-c2cccs2)s1`, the EC50 is 0.623 µM.

As to `Cc1ccc(NC(=O)c2ccc3ccccc3n2)nc1`, the EC50 was 4.11 µM.

For the compound `Clc1c(CSc2nc3ccccc3o2)nc2ccccn12`, the EC50 is 1.96 µM.

`CCOc1ccc2cc(C#N)c(SCC(=O)OC)nc2c1`: the EC50 was 14.5 µM.

For the compound `CC(=O)c1sc(N/N=C\c2ccccc2O)nc1C`, the EC50 was 5.53 µM.

Regarding `Cc1ccc(NC(=O)c2scc3c2CCCC3)cc1`, the EC50 is 0.714 µM.

As to `COC(=O)CSc1nc2cc(OC)ccc2cc1C#N`, the EC50 was 0.295 µM.

On to `O=C(O)c1cccc(N/N=C/c2ccc(-c3ccccc3)cc2)c1`, for which the EC50 is 1.79 µM.

Regarding `COc1cccc2sc(N(C)c3ccccc3)nc12`, the EC50 is 2.67 µM.

Take `COc1ccc(Nc2nc(-c3ccccc3)cs2)cc1`: the EC50 is 0.752 µM.

For `CCOc1ccc(OCc2cccc(C(=O)O)c2)cc1`, the EC50 is 1.85 µM.

Regarding `O=c1oc2ccccc2cc1-c1csc(Nc2ccc(O)cc2)n1`, the EC50 is 3.23 µM.

Consider `O=C(NCCC1=CCCCC1)Nc1ccc2nsnc2c1`, for which the EC50 is 4.77 µM.

Consider `Cc1ccc(C(=O)/C=C/Nc2cccc(O)c2)cc1`, for which the EC50 is 0.559 µM.

As to `O=[N+]([O-])c1ccc(N/N=C/c2ccc[nH]2)cc1`, the EC50 is 3.63 µM.

On to `c1ccc(OCCSc2nnnn2-c2ccccc2)cc1`, for which the EC50 was 8.35 µM.

Turning to `Clc1ccc(OCc2nc(-c3ccncc3)no2)c(Cl)c1`, the EC50 is 1.12 µM.

In the case of `CC(C)(C)C(=O)Nc1nc(-c2ccccc2)ns1`, the EC50 was 2.73 µM.

As for `c1ccc(Nc2nc(-c3cccs3)cs2)nc1`, the EC50 was 0.667 µM.

Regarding `O=C(N/N=C/C(Br)=C\c1ccccc1)c1n[nH]c2c1CCC2`, the EC50 is 1.09 µM.

As to `Fc1ccccc1Nc1nc2c(s1)CCc1ccccc1-2`, the EC50 was 3.36 µM.

`COc1ccc(C(=O)Nc2cccc(C)c2)cc1`: the EC50 is 6.19 µM.

For `Cc1c(-c2nc(N)nc(Nc3ccccc3F)n2)oc2ccccc12`, the EC50 is 2.02 µM.

`COc1ccc(-c2cn3cccc(C)c3n2)cc1F`: the EC50 is 22.4 µM.

As to `Cc1ccnc(NC(=O)Nc2cccc(F)c2)c1`, the half-maximal effective concentration (EC50) was 0.608 µM.

For the compound `N/C(=N\OC(=O)c1ccc(Cl)cc1Cl)c1cccnc1`, the EC50 is 2.1 µM.

Turning to `Cc1ccc(NCc2nc3ccccc3n2C)cc1`, the EC50 is 3.36 µM.

In the case of `CN(C)C(=O)Oc1ccc(-c2cn3cc(Cl)ccc3n2)cc1`, the EC50 was 3.22 µM.

For the compound `COc1ccc(-c2cc(=O)c3c(O)c(OC)c(O)cc3o2)cc1`, the EC50 is 2.29 µM.

In the case of `CN=c1scc(-c2ccccc2F)n1/N=C(\C)c1cccnc1`, the EC50 is 24.4 µM.

With `O=S1(=O)N=C(Nc2nc3c(s2)CCCC3)c2ccccc21`, the EC50 was 21.8 µM.

On to `Cc1cnc(NC(=O)Nc2ccc(Cl)cc2)s1`, for which the EC50 is 24 µM.

As to `Fc1ccc(-c2cn3cc(C(F)(F)F)cc(Cl)c3n2)cc1`, the EC50 was 4.45 µM.

For the compound `Cn1cccc1C(=O)C(=O)Nc1ccccc1`, the EC50 is 25.1 µM.

Regarding `O=C(/C=C/Nc1ccccc1)c1ccccc1`, the EC50 was less than 0.059 µM.

As for `COc1ccc(Cn2c(C3CC3)nc3ccc(NC(=O)C4CC4)cc3c2=O)cc1`, the EC50 was 1.3 µM.

Regarding `Cc1ccc(N2Cc3ccccc3C2=S)cc1`, the EC50 was 5.15 µM.

Turning to `Cc1ccc(NC(=O)c2cc3c(s2)CCCC3)cc1`, the EC50 is 10.4 µM.

Consider `CC(C)(C)c1ccc(C(=O)Nc2cnccn2)cc1`, for which the EC50 was 1.12 µM.

As to `Fc1ccc(Nc2ccc3ccccc3n2)c(F)c1`, the EC50 was 0.698 µM.

Regarding `Cc1ccc(N/N=C(\C#N)C(=N)N2CCCCCC2)cc1`, the EC50 is 1.85 µM.

As for `CCOc1ccc2nc(N3CCCCCC3)sc2c1`, the EC50 was 3.69 µM.

Turning to `N#C/C(=C/c1ccco1)c1nc2ccccc2s1`, the EC50 was 1.97 µM.

For the compound `Oc1ccc(N=Nc2n[nH]c(-c3ccccc3)n2)cc1`, the EC50 is 3.99 µM.

On to `COc1cccc(/C=C/C(=O)Nc2ccc3c(c2)OCCO3)c1OC`, for which the EC50 is 1.05 µM.

On to `CCOC(=O)c1sc(NC(=O)Nc2ccccc2)cc1C`, for which the EC50 is 0.753 µM.

With `Cc1ccc2nc(NC(=O)c3ccc(Cl)s3)sc2c1`, the EC50 is 1.06 µM.

On to `C/C(=N\NC(=O)c1ccc(Cl)cc1)c1cccs1`, for which the EC50 is 1.4 µM.

For `CCCOc1ccc(C(=O)Nc2ccc(Cl)cn2)cc1`, the EC50 is 1.09 µM.

Take `COc1ccc2nc(Nc3ccccc3)sc2c1`: the EC50 was 11.1 µM.

As for `Oc1ccccc1-c1cc(-c2cccc(F)c2)n[nH]1`, the EC50 was 7.73 µM.

As for `O=[N+]([O-])c1cc(Cl)ccc1-c1nc(-c2ccccc2)no1`, the concentration for a half-maximal effect (EC50) was 3.2 µM.

`COc1ccc(C2=Nc3cc(C)ccc3OC2)cc1`: the EC50 is 1.95 µM.

In the case of `C/C(=N\Nc1cccc2cccnc12)c1ccccc1O`, the EC50 was 1.01 µM.

Take `COc1cc(OC)cc(-c2nc3cc(C)ccc3o2)c1`: the EC50 was 29.3 µM.

Turning to `O=C(Nc1cccnc1)c1cc2c(ccc3ccccc32)o1`, the EC50 was 3.46 µM.

Turning to `Cc1ccccc1Nc1nc(N)nc(CSc2ccc(F)cc2)n1`, the 50% effective concentration (EC50) was 6.45 µM.

As to `N/C(=N\OC(=O)c1cc(Br)ccc1Cl)c1ccccn1`, the EC50 is 2.22 µM.

Regarding `CCC(=O)NC(c1ccccc1OC)c1ccc2cccnc2c1O` (configuration not stated), the EC50 was 8.39 µM.

Consider `Cc1occc1C(=O)Nc1cccc2ccccc12`, for which the EC50 is 4.62 µM.

Consider `Cc1ccc(/C=C2\OC(=O)c3ccccc32)cc1`, for which the EC50 was 6.03 µM.

In the case of `O=C(/C=C/c1ccc(Cl)cc1Cl)Nc1cccc(S(=O)(=O)NC2=NCCC2)c1`, the EC50 is 1.3 µM.

For `CC(=O)Nc1ccc(-c2csc(Nc3cccc(C)n3)n2)cc1`, the EC50 was 1 µM.

Consider `O=Cc1cn(-c2ccccc2)nc1-c1ccc2c(c1)OCCO2`, for which the EC50 was 6.4 µM.

For the compound `Clc1cc(Cl)c(OCc2nc(-c3ccccn3)no2)cc1Cl`, the EC50 is 1.85 µM.

On to `COc1ccc(-c2cn3cc(C)ccc3n2)cc1OC`, for which the EC50 is 3.37 µM.

As to `CC(C(=O)O)c1ccc(N2Cc3ccccc3C2=O)cc1` (configuration not stated), the EC50 is 1.52 µM.

As for `Cc1ccc(-c2nc(-c3cccnc3)no2)cc1`, the concentration for a half-maximal effect (EC50) was 1.32 µM.

As a reminder, the EC50 is the concentration that produces a half-maximal response.
